{
  "source": "patent US20240350525A1",
  "about": "“HEART DISEASE AGENT AND METHOD FOR IMPROVING HEART DISEASE” (MIRAILAB BIOSCIENCE INC., priority 2021, published 2024)",
  "test_system": "subject",
  "assay": "Electrocardiography before and after oral ingestion of NMN capsules in a subject with suspected ventricular extrasystole",
  "assay_type": "in vivo, human",
  "procedure": "On Jun. 4, 2020, electrocardiography was performed on a subject by placing the subject in the supine position, putting clips on the extremities, attaching electrodes to the chest, and using an electrocardiograph (product name: Electrocardiograph ECG-2250, manufactured by NIHON KOHDEN CORPORATION) with leads I to III and leads aVR, aVL, and aVF. The paper feed speed of the electrocardiogram was set to 25 mm/second, and the vertical axis was set to 1 mV=10 mm for recording. The result is indicated in the electrocardiogram of FIG. 2 (horizontal axis: time (second), vertical axis: electric potential (mV)).\nAfterwards, from Oct. 18, 2020, the subject was caused to ingest (take orally) one capsule per day of NMN pure 3000 plus (NMN 50 mg/capsule, manufactured by MIRAILAB BIOSCIENCE Inc., trade name) for 47 consecutive days.\nThen, on Jan. 4, 2021, electrocardiography was performed again on the above-described subject similarly as described above. The result is indicated in the electrocardiogram of FIG. 3 (horizontal axis: time (second), vertical axis: electric potential (mV)). […] From this, it was confirmed that NMN ingestion was effective for electrocardiogram abnormalities and arrhythmias.",
  "data": [
    {"compound": "NC(=O)c1ccc[n+]([C@@H]2O[C@H](COP(=O)([O-])O)[C@@H](O)[C@H]2O)c1", "note": "[NMN, nicotinamide mononucleotide]", "values": [
      {"measurement": "heart rate", "setting": "after ingestion of one capsule per day (NMN 50 mg/capsule) for 47 consecutive days, 69 bpm before ingestion", "result": 57, "unit": "bpm"},
      {"measurement": "electrocardiogram waveforms", "setting": "one subject, one capsule per day (NMN 50 mg/capsule) orally for 47 consecutive days, ECG on Jan. 4, 2021", "result": "appeared with regularity in order"},
      {"measurement": "QRS complexes having a wide and odd-shaped waveform", "setting": "one subject, one capsule per day (NMN 50 mg/capsule) orally for 47 consecutive days, ECG on Jan. 4, 2021, complexes were recognized before ingestion", "result": "not recognized"},
      {"measurement": "effect on electrocardiogram abnormalities and arrhythmias", "setting": "overall conclusion, one subject, NMN 50 mg/day orally for 47 consecutive days", "result": "effective"}
    ]}
  ]
}
